Results reported in US11123272B2, “Cosmetic blends” (Symrise AG, priority 2016, dated 2021).

Molecular target: T1, human TREK-1 receptor (Homo sapiens, UniProt O95069)
T1 construct: expressed in transfected cells
T1 sequence (O95069 1-426): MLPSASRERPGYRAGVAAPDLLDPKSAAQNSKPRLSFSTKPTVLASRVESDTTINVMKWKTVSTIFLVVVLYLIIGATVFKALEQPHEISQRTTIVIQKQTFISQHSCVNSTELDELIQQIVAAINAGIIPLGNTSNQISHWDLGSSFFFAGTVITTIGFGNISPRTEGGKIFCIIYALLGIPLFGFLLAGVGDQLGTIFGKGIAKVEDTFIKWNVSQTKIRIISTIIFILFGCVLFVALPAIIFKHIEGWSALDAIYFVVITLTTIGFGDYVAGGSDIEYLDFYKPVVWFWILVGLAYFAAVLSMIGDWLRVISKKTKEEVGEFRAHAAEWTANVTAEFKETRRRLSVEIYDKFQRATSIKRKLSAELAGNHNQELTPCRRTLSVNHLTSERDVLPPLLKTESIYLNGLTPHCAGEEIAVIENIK
Experiment: TREK receptor screening: TREK-1 mediated currents by manual patch clamp in transfected frog oocytes
Format: cell-based
Conditions: at 1 mMol; None = 1.000
Excerpt: The human TREK-1 receptor is a temperature sensitive, mechano-gated potassium channels, present in human skin and neuronal cells. It is known to be involved in the signaling of temperature sensation. Here it cooperates with other ion channels in the relevant cell types.
To screen for TREK-1 receptor channel blockers, frog oocyte were transfected to transiently overexpress the human TREK-1 receptor. A substance database was screened on the cells. Read out was TREK-1medited currents, detected by manual patch clamp.

Row | Blockade of TREK-1 receptor, F.I. | Structure (SMILES)
1 | 0.773 | CCCCCCCCC(O)CO (centres unmarked) [1,2-Decandiol]
2 | 0.733 | CCCCCCCCCCC(O)CO (centres unmarked) [1,2-Dodecandiol]

Continued, compound first:

Row | Structure (SMILES) | Blockade of TREK-1 receptor, F.I.
3 | CCCCC(O)CO (centres unmarked) [1,2-Hexandiol] | 0.942
4 | CCCCCCC(O)CO (centres unmarked) [1,2-Octandiol] | 0.855
5 | CNCCC(Oc1ccc(C(F)(F)F)cc1)c1ccccc1 (centres unmarked) [Fluoxetine, reference compound] | 0.679
